The source of these data is BindingDB's records for doi:10.1021/jm2013826 (2012).

The target of this test is Integrin alpha-IIb/beta-3 (Homo sapiens, UniProt P08514+P05106). Kind of test: Inhibition of integrin alpha2bbeta3-mediated platelet aggregation in human TRAP-6-activated whole blood for 6 mins by impedence-based aggregometry.
Chain of Integrin alpha-IIb/beta-3 (P05106 27-788 limits assumed): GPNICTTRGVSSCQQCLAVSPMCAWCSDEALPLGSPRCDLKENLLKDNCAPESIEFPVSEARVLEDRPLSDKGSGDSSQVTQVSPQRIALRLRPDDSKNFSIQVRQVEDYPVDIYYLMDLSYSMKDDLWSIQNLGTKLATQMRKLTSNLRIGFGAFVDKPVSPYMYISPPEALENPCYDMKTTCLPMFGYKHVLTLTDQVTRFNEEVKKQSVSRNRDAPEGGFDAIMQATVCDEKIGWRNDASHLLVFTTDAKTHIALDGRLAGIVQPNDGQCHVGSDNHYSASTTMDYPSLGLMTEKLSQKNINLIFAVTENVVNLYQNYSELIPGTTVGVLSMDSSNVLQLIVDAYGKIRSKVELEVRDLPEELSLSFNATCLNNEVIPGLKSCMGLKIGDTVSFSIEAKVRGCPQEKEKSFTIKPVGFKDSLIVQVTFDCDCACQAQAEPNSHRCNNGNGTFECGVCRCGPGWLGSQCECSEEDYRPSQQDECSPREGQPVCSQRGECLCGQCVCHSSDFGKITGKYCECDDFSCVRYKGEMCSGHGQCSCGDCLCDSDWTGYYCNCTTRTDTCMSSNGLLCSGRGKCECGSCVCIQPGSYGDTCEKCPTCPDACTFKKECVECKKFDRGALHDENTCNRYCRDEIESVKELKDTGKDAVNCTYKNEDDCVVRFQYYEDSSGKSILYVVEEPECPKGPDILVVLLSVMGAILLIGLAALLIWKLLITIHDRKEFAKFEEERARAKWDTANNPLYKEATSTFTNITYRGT
Chain of Integrin alpha-IIb/beta-3 (P08514 32-887 limits assumed): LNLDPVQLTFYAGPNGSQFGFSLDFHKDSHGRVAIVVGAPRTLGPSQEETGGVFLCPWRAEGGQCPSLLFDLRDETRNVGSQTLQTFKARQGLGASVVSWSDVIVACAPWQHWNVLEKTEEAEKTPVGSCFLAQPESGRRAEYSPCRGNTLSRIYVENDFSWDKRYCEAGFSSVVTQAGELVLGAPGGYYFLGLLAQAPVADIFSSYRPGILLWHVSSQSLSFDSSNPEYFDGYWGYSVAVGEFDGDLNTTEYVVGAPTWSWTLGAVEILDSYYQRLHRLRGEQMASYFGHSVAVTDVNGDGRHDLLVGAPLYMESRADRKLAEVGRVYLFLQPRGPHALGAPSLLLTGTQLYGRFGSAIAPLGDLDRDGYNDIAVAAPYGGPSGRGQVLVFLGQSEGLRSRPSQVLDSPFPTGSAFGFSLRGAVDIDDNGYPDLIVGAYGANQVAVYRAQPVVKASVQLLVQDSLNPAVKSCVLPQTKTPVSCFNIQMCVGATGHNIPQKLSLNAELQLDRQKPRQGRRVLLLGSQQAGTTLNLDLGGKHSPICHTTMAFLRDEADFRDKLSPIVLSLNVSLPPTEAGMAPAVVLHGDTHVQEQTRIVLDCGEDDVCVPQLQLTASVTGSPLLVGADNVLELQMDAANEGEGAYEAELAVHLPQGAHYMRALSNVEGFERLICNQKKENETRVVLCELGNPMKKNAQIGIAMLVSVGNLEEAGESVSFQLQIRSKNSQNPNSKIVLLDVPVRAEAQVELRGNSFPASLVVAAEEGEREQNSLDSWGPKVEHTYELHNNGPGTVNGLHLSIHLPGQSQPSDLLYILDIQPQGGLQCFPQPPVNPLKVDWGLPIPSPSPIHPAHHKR
Chain of Integrin alpha-IIb/beta-3 (P08514 891-1039 limits assumed): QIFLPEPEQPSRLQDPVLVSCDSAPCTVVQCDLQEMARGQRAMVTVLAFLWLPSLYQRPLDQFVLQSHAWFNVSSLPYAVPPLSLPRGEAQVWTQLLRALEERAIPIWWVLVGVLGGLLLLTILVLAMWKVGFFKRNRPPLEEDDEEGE
With `COP(=O)(O)[C@H](CNC(=O)c1ccc(OCCC2CCNCC2)cc1)NS(=O)(=O)c1ccccc1`, the EC50 is 40.8 nM.

The molecule `O=C(NC[C@H](NS(=O)(=O)c1ccccc1)P(=O)(O)O)c1ccc(OCCC2CCNCC2)cc1` came in with a concentration giving a half-maximal response (EC50) of 276 nM. The figure for `O=C(NC[C@H](NS(=O)(=O)c1ccccc1)[PH](=O)O)c1ccc(OCCC2CCNCC2)cc1` is 7.8 nM.
